The text below walks through data of patent US20210121833A1, “Producing Homogeneous Metastable Solutions from Heterogeneous Non-condensed Solutes And Liquid Solvents” (priority 2019, published 2021).

In data set [1] the test system is wounds and lesions. As to the kind of experiment: Baths with oxygen saturated metastable solution, preliminary animal studies. The format is in vivo. The conditions noted are these: at least 30 mg/l concentration of oxygen.
The conditions of data set [2]: cited from earlier work.

Take `O=O` [oxygen]: in data set [1], the benefits of healing entry is given as “Benefits of healing have been seen”. Also, in data set [2] (STP), the “fully saturated DO level” value is 38 mg/L. Besides, the “solubility limit of oxygen” value in data set [2] (atmospheric conditions, partial pressure in air of 0.21 atm) is “less than 10 mg/l”.
